# Assay results: ChEMBL document CHEMBL5604062, “ASAP - ZIKV NS2B-NS3 protease fluorescence dose response” (2024)
# “And” between values parts separate entries of the source, which are not always exact repeats. Identical values can stand only once.
# Target: Nonstructural protein 3 (Zika virus, UniProt A0A024AXB9)
# Experiment: Functional biochemical assay to identify treatments for viral infectious disease that targets Zika NS2B-NS3 protease. Utilizing a direct enzyme activity measurement method, reading the fluorescence intensity is used to characterize the relative potency of inhibitors as IC50.
# Parameters: species or system PRVABC59
# Nonstructural protein 3, sequence (A0A024AXB9 whole entry): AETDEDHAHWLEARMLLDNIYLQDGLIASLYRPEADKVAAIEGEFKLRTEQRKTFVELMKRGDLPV
row,SMILES,IC50
1,C1=C(c2cccnc2)CN(Cc2c[nH]c3ccccc23)CC1,> 99.5 µM
2,NCCc1cc(Cl)cc(C(=O)Nc2cccc(CN)c2)c1,0.33 µM
3,O=C(Nc1ccc2c(c1)CNC2)N1CCC[C@H]1Cc1cc2ccccc2o1,> 25 µM
4,C[C@@H](NCc1c[nH]c2ccccc12)c1cscn1,> 99.5 µM
5,COc1ccccc1-c1ccc([C@@H](NC(=O)OCc2ccccc2)C(=O)Nc2cccc(CN)c2)cc1,27.2 µM
6,NCc1cccc(NC(=O)[C@@H](NC(=O)OCc2ccccc2)c2cccc(OC[C@H]3CCCO3)c2)c1,> 99.5 µM
7,c1cc(Cc2noc(CCc3cscn3)n2)no1,> 99.5 µM
8,COc1cc(Cc2ccc3[nH]ncc3c2)nc(N2CCNCC2)n1,> 99.5 µM
9,N#C[C@H](Nc1cccc(C(=O)O)c1)c1cc(Cl)cc2[nH]ncc12,> 99.5 µM
10,NCc1cccc(NC(=O)[C@H]2CCOC3(CCC3)C2)c1,> 99.5 µM
11,NCc1cccc(NC(=O)C[C@H](CC(N)=O)c2ccc(F)cc2)c1,> 99.5 µM
12,CSC1(C(=O)N[C@H](CC(=O)Nc2cccc(CN)c2)c2ccc(OCc3ccccc3)c(Br)c2)CCC1,11.8 µM
13,Cn1nc(NC(=O)c2cc(Cl)cc(NC(=O)OCc3ccccc3)c2)c2c1CNC2,> 99.5 µM
14,O=C(Nc1ccc2c(c1)CNC2)N1CCC[C@H](Cc2nccs2)C1,> 25 µM
15,Cc1cc(NS(=O)(=O)c2ccc(Cl)cc2C(=O)O)nn1Cc1ccccc1,> 99.5 µM
16,O=C(Nc1cc(Cl)cc(C(=O)NC2([C@H]3CCNC3)CC2)c1)OCc1ccccc1,> 99.5 µM
17,NCc1ccc(-c2ncc(OCC3CCNCC3)nc2-c2ccc(C3CCOCC3)cc2)cc1,> 99.5 µM
18,NCc1cccc(NC(=O)c2cc(Cl)cc(-n3cccc3)c2)c1,2.7 µM
19,c1ccc2c(CN3CCC(c4c[nH]c5ncccc45)CC3)c[nH]c2c1,33.9 µM
20,Cn1ccnc1COc1cccc([C@H](NC(=O)OCc2ccccc2)C(=O)Nc2cccc(CN)c2)c1,> 99.5 µM
21,Cc1cnnc(C(=O)Nc2cccc(CN)c2)c1,> 99.5 µM
22,O=C(O)c1c(Br)sc2nnsc12,40.2 µM
23,Cc1c(C(=O)Nc2cc(-c3cccnc3)ccn2)cc(C2CCCC2)n1C,> 25 µM
24,NCc1cccc(NC(=O)[C@H](NC(=O)Cc2ccccc2)c2ccc(OCc3ccccc3)cc2)c1,28.9 µM and 28.2 µM
25,O=C(O)c1ccn(C2CCN(Cc3c[nH]c4ccccc34)CC2)n1,> 99.5 µM
26,NCc1cccc(NC(=O)[C@@H](NC(=O)OCc2ccccc2)c2ccc(-c3ccnc4[nH]ccc34)cc2)c1,> 99.5 µM

row,SMILES,IC50
1,Cc1cc(NC(=O)c2cc(C3CC3)n(C)c2C)ccc1N1CCCC1=O,> 25 µM
2,CN1CCc2c(cccc2NC(=O)c2cc(Cl)cc(NC(=O)OCc3ccccc3)c2)C1,> 99.5 µM
3,CC(C)Oc1ccc(Cl)cc1[C@H](Nc1ccc2c(c1)CNC2)C(=O)NCC(F)F,0.106 µM
4,O=c1c(N2CC[C@H](CO)C2)nccn1C1CC1,> 99.5 µM
5,N#Cc1cc(Cl)cc(C(=O)Nc2cccc(-c3nnn[nH]3)c2)c1,> 99.5 µM
6,CC(=O)N[C@@H](C(=O)Nc1cccc(CN)c1)c1ccc(OCc2ccccc2)cc1,> 99.5 µM
7,O=C(Nc1ccc2c(c1)CNC2)C1CCCCC1,> 99.5 µM
8,COC(=O)c1cc(Br)cc2c(Cc3ccc(-c4nnn[nH]4)cc3)c[nH]c12,> 99.5 µM
9,O=C(N[C@@H](C(=O)Nc1ccncc1)c1ccc(OCc2ccccc2)cc1)OCc1ccccc1,> 99.5 µM
10,NCCCc1ccnc(NC(=O)c2cc(C3CC3)no2)c1,> 25 µM
11,CS(=O)(=O)Nc1cccc(NC(=O)c2cc(Cl)cc(NC(=O)OCc3ccccc3)c2)c1,> 99.5 µM
12,Cc1c(C(=O)Nc2cccc(-c3nnn[nH]3)c2)n[nH]c1-c1ccc(Cl)cc1,> 99.5 µM
13,Cc1[nH]c2ccc(Br)cc2c1CC(=O)Nc1cccc(CN)c1,> 99.5 µM
14,O=C(O)c1cc(Cl)ccc1S(=O)(=O)Nc1ccc(N2CCCCC2)c(Cl)c1,> 99.5 µM
15,CN(C)Cc1cncc(NC(=O)[C@@H](NC(=O)OCc2ccccc2)c2ccc(OCc3ccccc3)cc2)c1,> 99.5 µM
16,NCCc1csc2cc(C(=O)Nc3ccc4c(c3)CNC4)ccc12,0.144 µM
17,NCc1nccc(NC(=O)c2cc(Cl)cc(NC(=O)OCc3ccccc3)c2)n1,> 99.5 µM
18,O=C(Nc1ccc2c(c1)CNC2)c1ccc2[nH]ncc2c1,2.01 µM
19,NCc1cccc(NC(=O)c2cc(Cl)ccc2Oc2cccc(Cl)c2)c1,61.7 µM
20,Brc1cc(CNc2ccc3c(c2)CNC3)c2cc[nH]c2c1,4.32 µM
21,N#Cc1ccc(N2CCN(Cc3c[nH]c4ccccc34)CC2)cc1,86.2 µM
22,O=C(Nc1ccc2c(c1)CNC2)c1ncnc2ccsc12,> 99.5 µM
23,Cc1ccc(NC(=O)c2cc(Cl)cc3[nH]ncc23)cc1N,> 99.5 µM
24,CCOc1cccc(-c2ccc(S(=O)(=O)Nc3cc4c(cc3C(=O)O)CCC4)cc2)c1,14.2 µM
25,C[C@H]1COCCN1C(=O)c1cc(Cl)ccc1NS(=O)(=O)c1ccc(Oc2ccccc2Cl)cc1,> 99.5 µM
26,O=C(O)c1cc(Cl)ccc1S(=O)(=O)N[C@H]1CC[C@H]2CN(Cc3ccccc3)C[C@H]2C1,> 99.5 µM

row,SMILES,IC50
1,CCCC(=O)Nc1cc(Cl)cc(C(=O)Nc2cccc(CN)c2)c1,4.37 µM
2,O=C1Cc2cc(NC(=O)c3cc(Cl)cc4[nH]ncc34)ccc2N1,> 99.5 µM
3,CC(C)(C)Oc1ccc(S(=O)(=O)Nc2ccc(Cl)cc2C(=O)O)cc1,> 99.5 µM
4,CCn1c(=O)c(N2C[C@H]3CN(C)CC[C@H]3C2)nc2ccccc21,> 99.5 µM
5,O=C(Nc1ccc2c(c1)CNC2)c1cc(F)cc(-c2c[nH]c(=O)c(F)c2)c1,0.073 µM and 0.043 µM
6,CCC[C@H](Oc1ccc(Cl)cc1C)C(=O)Nc1cccc(CN)c1,> 99.5 µM
7,O=C(Nc1cc(-c2cccnc2)ccn1)c1csc(C[C@H]2CCNC2)n1,> 25 µM
8,Cc1cnn(-c2cccc(-c3cccc(C4(CN)CC4)c3)c2)c1,> 99.5 µM
9,CC(C)(C)NS(=O)(=O)c1cccc(C(=O)Nc2cccc(CN)c2)c1,> 99.5 µM
10,CN(C(=O)OCc1ccccc1)[C@H](C(=O)Nc1cccc(CN)c1)c1ccc(OCc2ccccc2)cc1,23.3 µM
11,C=CC[C@H](Nc1cc(Cl)cc(NC(=O)OCc2ccccc2)c1)c1cccc(-c2nn[nH]n2)c1,13.5 µM and 9.86 µM and 11 µM
12,O=C(Nc1ccc2c(c1)CN[C@H]2C[C@H](O)CO)c1cc(F)cc2[nH]ncc12,0.077 µM and 0.069 µM
13,Cc1cc(NC(=O)c2cc(Cl)cc3[nH]ncc23)ccc1N1CCNCC1,6.48 µM
14,COC(=O)[C@@H]1CC2(CC[C@@H]1NS(=O)(=O)c1ccc(Oc3ccccc3Cl)cc1)CC2,> 99.5 µM
15,NCc1cccc(NC(=O)c2cc(NC(=O)OCc3ccccc3)cc(C(N)=O)c2)c1,> 99.5 µM
16,O=C(N[C@@H](C(=O)NCc1cn[nH]c1)c1ccc(OCc2ccccc2)cc1)OCc1ccccc1,> 99.5 µM
17,NCc1ccc(F)c(NC(=O)c2cc(Cl)cc(NC(=O)OCc3ccccc3)c2)c1,4.35 µM
18,NCc1cc(S(=O)(=O)Nc2ccc(Cl)cc2C(=O)NCC(F)(F)F)ccc1Oc1ccccc1,> 99.5 µM
19,CCn1c(=O)c(N2C[C@H]3C[C@@]3(C(F)F)C2)nc2ccccc21,> 99.5 µM
20,O=C1OCc2ccc(NC(=O)[C@H]3CCNC34CCCC4)cc21,> 25 µM
21,C#C[C@H](Nc1cccc(-c2nn[nH]n2)c1)c1cc(Cl)cc(NC(=O)OCc2ccccc2)c1,22.9 µM
22,C#Cc1cc(CN)ccc1NS(=O)(=O)c1ccc(Oc2ccccc2Cl)cc1,> 99.5 µM
23,O=C(Nc1ccc2c(c1)CNC2)c1cccc(-c2cnco2)c1,1.83 µM
24,Nc1ccc(NC(=O)c2cc(Cl)cc3[nH]ncc23)cn1,> 99.5 µM
25,O=C(Nc1ccc2c(c1)CNC2)c1cccc(O)c1,3.94 µM
26,NCc1cc(NC(=O)c2cc(Cl)cc(NC(=O)OCc3ccccc3)c2)cc(C2=CC[C@H](C(=O)O)C2)c1,7.96 µM

row,SMILES,IC50
1,COC[C@]1(c2nc3c(C(=O)Nc4ccc5c(c4)CNC5)cc(F)cc3[nH]2)CCOC1,0.344 µM
2,Cc1cc(CN(C)C)cc(NC(=O)[C@H](NC(=O)OCc2ccccc2)c2ccc(OCc3ccccc3)cc2)c1,> 99.5 µM
3,C[C@]1(C(=O)N[C@H](C(=O)Nc2cccc(CN)c2)c2ccc(OCc3ccccc3)cc2)COc2ccccc2O1,17.2 µM
4,NCc1cccc(C(=O)Nc2cc(Cl)cc(NC(=O)OCc3ccccc3)c2)c1,16.6 µM
5,O=C(O)c1cc(Cl)ccc1S(=O)(=O)N[C@H]1CCN(Cc2ccccc2)C2(CC2)C1,> 99.5 µM
6,COc1cc(C(=O)Nc2ccc3c(c2)CNC3)cc2ccoc12,0.917 µM
7,O=C(Nc1ccc2c(c1)CNC2)c1cncc(-c2ccccc2)c1,14.7 µM
8,O=C(Nc1cc(Cl)cc(C(=O)N2CCC(c3nn[nH]n3)CC2)c1)OCc1ccccc1,> 99.5 µM
9,NCc1cc(-c2ccncc2)cc([C@@H]2C[C@H]2c2cc(Cl)cc(NC(=O)OCc3ccccc3)c2)c1,12.3 µM
10,Cc1nc(COc2ccc([C@@H](NC(=O)OCc3ccccc3)C(=O)Nc3cccc(CN)c3)cc2)cs1,> 99.5 µM
11,COc1cc2c(CN3CCC(c4cscn4)CC3)c[nH]c2cc1Cl,49.6 µM
12,Cc1c(C(=O)O)sc2ncc(Cc3c[nH]c4ccc(Cl)cc34)cc12,97.2 µM
13,CC[C@H]1CCN(C(=O)c2cc(Cl)ccc2NS(=O)(=O)c2ccc(Oc3ccccc3Cl)cc2)C1,> 99.5 µM
14,Cc1c(C(=O)Nc2cc(C(=O)N3CC[C@H](C(N)=O)C3)ccn2)cc(C2CC2)n1C,> 25 µM
15,O=C(Cn1ccnc(N2CC[C@H](CO)C2)c1=O)Nc1ccccc1,> 99.5 µM
16,NCCNC(=O)c1cc(Cl)cc(NC(=O)OCc2ccccc2)c1,> 99.5 µM
17,CCn1ccnc(N2CC[C@@H](CC(N)=O)C2)c1=O,> 99.5 µM
18,C[C@H]1C[C@@H](C(=O)Nc2cccc(CN)c2)CCO1,> 99.5 µM
19,CCn1c(=O)c(N2C[C@H]3C[C@@H](O)CC[C@H]3C2)nc2ccccc21,> 99.5 µM
20,Cc1c(C(=O)Nc2cccc(Cn3ccccc3=O)c2)cc(C2CC2)n1C,> 25 µM
21,N[C@H]1CCc2ncc(NS(=O)(=O)c3ccc(Oc4ccccc4Cl)cc3)cc2C1,> 99.5 µM
22,CC(C)(C)OC(=O)Nc1cccc2[nH]cc(CN3CCC(c4cscn4)CC3)c12,> 99.5 µM
23,N[C@H]1CCc2cc(NC(=O)c3cc(Cl)cc(NC(=O)OCc4ccccc4)c3)ccc21,5.75 µM
24,CN1CCC[C@H](c2nc3c(C(=O)Nc4ccc5c(c4)CNC5)cc(F)cc3[nH]2)C1=O,0.163 µM
25,N=C(N)NCCc1cccc(B(O)O)c1,> 100 µM
26,Cc1cc(CNC(=O)[C@@H](NC(=O)OCc2ccccc2)c2ccc(OCc3ccccc3)cc2)cc(C)n1,> 99.5 µM
